Assay results: ChEMBL document CHEMBL5543126, “Combinatorial Ubiquitination REal-time PROteolysis (CURE-PROs): A Modular Platform for Generating Reversible, Self-Assembling Bifunctional Targeted Degraders” (J Med Chem, 2024)
Active and inactive are the calls of the source. No cut-off for these calls is given here.

Assays:
[1] = target: T1, von Hippel-Lindau disease tumor suppressor/Bromodomain-containing protein 4 (Homo sapiens, UniProt O60885+P40337); test: PROTAC activity at BRD4/VHL in human MCF7 cells assessed as induction of BRD4 degradation by measuring residual activity at 300 nM incubated for 24 hrs by Western blot analysis; format: cell-based
[2] = target: T1, von Hippel-Lindau disease tumor suppressor/Bromodomain-containing protein 4; test: (§1) PROTAC activity at BRD4/VHL in human MCF7 cells assessed as induction of BRD4 degradation by measuring residual activity at 100 nM incubated for 24 hrs in presence of 10 uM BRD4 based ligand ((4S)-6-(4-chlorophenyl)-4-(2-(ethylamino)-2-oxoethyl)-1-methyl4Hbenzo[f][1,2,4]triazolo [4,3-a][1,4]diazepin-8-yl)boronic acid by Western blot based Combinatorial Ubiquitination Real-time PROteolysis analysis; format: cell-based
[3] = Metabolic stability in C57BL/6 mouse liver microsome at 1 uM measured upto 60 mins in absence of NADPH/UDPGA by LC-MS/MS analysis; format: ADME; conditions: liver microsomes, read-out: Stability
[4] = AUClast in C57BL/6 mouse at 10 mg/kg, ip measured upto 24 hrs by LC-MS/MS analysis; format: ADME, organism-based; conditions: in vivo
[5] = target: T1, von Hippel-Lindau disease tumor suppressor/Bromodomain-containing protein 4; test: PROTAC activity at BRD4/VHL in human MCF7 cells assessed as induction of BRD4 degradation by measuring residual activity at 100 nM incubated for 24 hrs by Western blot analysis; format: cell-based
[6] = target: T1, von Hippel-Lindau disease tumor suppressor/Bromodomain-containing protein 4; test: PROTAC activity at BRD4/VHL in human MCF7 cells assessed as induction of BRD4 degradation by measuring residual activity at 30 nM incubated for 24 hrs by Western blot analysis; format: cell-based
[7] = target: T1, von Hippel-Lindau disease tumor suppressor/Bromodomain-containing protein 4; test: as §1, with “30” for “100”; format: cell-based
[8] = target: T1, von Hippel-Lindau disease tumor suppressor/Bromodomain-containing protein 4; test: PROTAC activity at BRD4/VHL in human MCF7 cells assessed as induction of BRD4 degradation by measuring residual activity at 1 uM incubated for 24 hrs by Western blot analysis; format: cell-based
[9] = Cmax in C57BL/6 mouse at 10 mg/kg, ip measured upto 24 hrs by LC-MS/MS analysis; format: ADME, organism-based; conditions: in vivo
[10] = target: T1, von Hippel-Lindau disease tumor suppressor/Bromodomain-containing protein 4; test: PROTAC activity at BRD4/VHL in human MCF7 cells assessed as induction of BRD4 degradation by measuring residual activity at 10 uM incubated for 24 hrs by Western blot analysis; format: cell-based
[11] = Metabolic stability in human liver microsome at 1 uM measured upto 60 mins in presence of NADPH/UDPGA by LC-MS/MS analysis; format: ADME; conditions: liver microsomes, read-out: Stability
[12] = Metabolic stability in human liver microsome assessed as half life at 1 uM measured upto 60 mins by LC-MS/MS analysis; format: ADME; conditions: liver microsomes
[13] = target: T1, von Hippel-Lindau disease tumor suppressor/Bromodomain-containing protein 4; test: as §1, with “3 uM” for “100 nM”, “of” for “of 10 uM”; format: cell-based
[14] = Metabolic stability in C57BL/6 mouse liver microsome at 1 uM measured upto 60 mins in presence of NADPH/UDPGA by LC-MS/MS analysis; format: ADME, microsomes
[15] = Metabolic stability in C57BL/6 mouse liver microsome assessed as half life at 1 uM measured upto 60 mins by LC-MS/MS analysis; format: ADME, microsomes
[16] = target: T1, von Hippel-Lindau disease tumor suppressor/Bromodomain-containing protein 4; test: as §1, with “100 nM” for “10 uM”; format: cell-based
[17] = target: T1, von Hippel-Lindau disease tumor suppressor/Bromodomain-containing protein 4; test: PROTAC activity at BRD4/VHL in human MCF7 cells assessed as induction of BRD4 degradation by measuring residual activity at 3 uM incubated for 24 hrs by Western blot analysis; format: cell-based
[18] = Tmax in C57BL/6 mouse at 10 mg/kg, ip measured upto 24 hrs by LC-MS/MS analysis; format: ADME, organism-based; conditions: in vivo
[19] = Metabolic stability in human liver microsome at 1 uM measured upto 60 mins in absence of NADPH/UDPGA by LC-MS/MS analysis; format: ADME; conditions: liver microsomes, read-out: Stability
[20] = target: T1, von Hippel-Lindau disease tumor suppressor/Bromodomain-containing protein 4; test: as §1, with “10 uM” for “100 nM”, “of” for “of 10 uM”; format: cell-based
[21] = Half life in C57BL/6 mouse at 10 mg/kg, ip measured upto 24 hrs by LC-MS/MS analysis; format: ADME, organism-based; conditions: in vivo
[22] = target: T1, von Hippel-Lindau disease tumor suppressor/Bromodomain-containing protein 4; test: (§2) PROTAC activity at BRD4/VHL in human MCF7 cells assessed as induction of BRD4 degradation by measuring residual activity at 100 nM incubated for 24 hrs in presence of 3 uM VHL based ligand (2S,4R)-1-((S)-2-(2,3-dihydroxybenzamido)-3,3-dimethylbutanoyl)-4-hydroxy-N-(4-(4-methylthiazol-5-yl)benzyl)pyrrolidine-2-carboxamide by Western blot based Combinatorial Ubiquitination Real-time PROteolysis analysis; format: cell-based
[23] = target: T1, von Hippel-Lindau disease tumor suppressor/Bromodomain-containing protein 4; test: as §2, with “VHL/BRD4” for “BRD4/VHL”, “HEK293” for “human MCF7”, “maximal level of degradation” for “residual activity”, “3 uM measured every 15 mins” for “100 nM incubated”, “of” for “of 3 uM”, “HiBiT” for “Western blot”; format: cell-based
[24] = target: T1, von Hippel-Lindau disease tumor suppressor/Bromodomain-containing protein 4; test: as §2, with “VHL/BRD4” for “BRD4/VHL”, “HEK293” for “human MCF7”, “degradation rate” for “residual activity”, “10 uM measured every 15 mins” for “100 nM incubated”, “of” for “of 3 uM”, “HiBiT” for “Western blot”; format: cell-based
[25] = target: T1, von Hippel-Lindau disease tumor suppressor/Bromodomain-containing protein 4; test: as §2, with “reduction in” for “induction of”, “level” for “degradation by measuring residual activity at 100 nM”, “[…]” for “3 uM VHL”; format: cell-based
[26] = target: T1, von Hippel-Lindau disease tumor suppressor/Bromodomain-containing protein 4; test: as §2, with “3 uM” for “100 nM”, “of” for “of 3 uM”; format: cell-based
[27] = target: T1, von Hippel-Lindau disease tumor suppressor/Bromodomain-containing protein 4; test: as §2, with “VHL/BRD4” for “BRD4/VHL”, “HEK293” for “human MCF7”, “Tmax” for “residual activity”, “3 uM measured every 15 mins” for “100 nM incubated”, “of” for “of 3 uM”, “HiBiT” for “Western blot”; format: cell-based
[28] = target: T1, von Hippel-Lindau disease tumor suppressor/Bromodomain-containing protein 4; test: as §2, with “VHL/BRD4” for “BRD4/VHL”, “degradation” for “degradation by measuring residual activity”, “10 uM measured at 4” for “100 nM incubated for 24”, “of” for “of 3 uM”; format: cell-based
[29] = target: T1, von Hippel-Lindau disease tumor suppressor/Bromodomain-containing protein 4; test: as §2, with “VHL/BRD4” for “BRD4/VHL”, “HEK293” for “human MCF7”, “degradation rate” for “residual activity”, “3 uM measured every 15 mins” for “100 nM incubated”, “of” for “of 3 uM”, “HiBiT” for “Western blot”; format: cell-based
[30] = target: T1, von Hippel-Lindau disease tumor suppressor/Bromodomain-containing protein 4; test: as §2, with “of” for “of 3 uM”; format: cell-based

T1 sequence (P40337 whole entry, looked up, other chains not shown): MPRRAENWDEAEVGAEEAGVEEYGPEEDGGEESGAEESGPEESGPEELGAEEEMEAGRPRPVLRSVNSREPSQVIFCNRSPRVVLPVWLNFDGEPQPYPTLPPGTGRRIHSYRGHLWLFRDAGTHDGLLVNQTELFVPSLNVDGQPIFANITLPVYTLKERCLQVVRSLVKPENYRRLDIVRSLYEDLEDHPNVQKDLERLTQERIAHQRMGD

Structure (SMILES) | Activity [1] [%] | remaining at 1 h, 1 µM [3] [%] | AUC(0-t) at 24 h [4] [ng·h/mL] | Activity [5] [%] | Activity [6] [%] | Activity [8] [%] | Cmax [9] [ng/mL] | Activity [10] [%] | remaining at 1 h, 1 µM [11] [%] | half-life at 1 µM [12] [h] | Activity [17] [%] | Tmax [18] [h] | remaining at 1 h, 1 µM [19] [%] | half-life [21] [h] | further results
Cc1ncsc1-c1ccc(CNC(=O)[C@@H]2C[C@@H](O)CN2C(=O)[C@@H](NC(=O)c2cccc(O)c2O)C(C)(C)C)cc1 | 86 | 83 | 2340 | 108 | 102 | 92 | 1570 | 95 | 73 | > 1 | 113 | 0.5 | 87 | 6.3 | Activity [2]: 87%; Activity [7]: 76%; Activity [13]: 73%; remaining at 1 h, 1 µM ([14]; C57BL/6, mouse, liver microsomes, read-out: Stability): 24%; half-life at 1 µM ([15]; C57BL/6, mouse, liver microsomes): > 1 h; Activity [16]: 97%; Activity [20]: 95%
CCNC(=O)C[C@@H]1N=C(c2ccc(Cl)cc2)c2cc(B(O)O)ccc2-n2c(C)nnc21 | 147 | 100 | 1860 | 121 | 116 | 91 | 1480 | 68 | 107 | > 1 | 71 | 0.5 | 101 | 6.3 | Activity [22]: 74%; Emax [23]: 93%; Activity [24]: 4.18 h⁻¹; Activity [25]: Active; DC50 [25]: 358 nM; Activity [26]: 73%; Stability ([14]; mouse, microsomes, 1 h, 1 µM): 112%; t1/2 ([15]; mouse, microsomes, 1 h, 1 µM): 0.483 h; Tmax [27]: 18 h; Activity [28]: 100%; Activity [29]: 0.908 h⁻¹; Activity [30]: 89%
